Measurements reported in patent US4070470A, “Platelet aggregation inhibiting carbostyrils, their compositions and method of use” (Otsuka Pharmaceutical Co., Ltd., priority 1974, dated 1978).

Legend:
[1] = tested on: ADP-induced aggregation in rabbit platelet; assay: Inhibition effect on ADP-induced aggregation in rabbit platelet; format: cell-based; conditions: rabbit platelet (PRP); for inhibition at 100 µM / inhibition at 10 µM / inhibition at 1 µM / inhibition at 0.01 µM / inhibition at 0.1 µM: Oryctolagus cuniculus, Platelet; for inhibition at 0.01 µM: 10^-8 M test compound solution
Method: (§1) The aggregation inhibitory activity was determined using an AG-II type aggregometer (made by Bryston Manufacturing Co.). A blood sample was withdrawn from rabbits as a mixture of sodium citrate and whole blood in a proportion of 1 : 9 by volume and centrifuged at 1000 rpm for 10 minutes to obtain a platelet rich plasma (PRP). The resulting PRP was separated, and the remaining blood sample was further centrifuged at 3000 rpm for 15 minutes to obtain a platelet poor plasma (PPP).
(§2) The number of platelets in the PRP was counted in accordance with the Brecher-Clonkite Method, and the PRP was diluted with the PPP to prepare a PRP sample containing platelets in an amount of 300,000/[…] for an adenosine diphosphate (ADP)-induced aggregation test and a PRP sample containing platelets in an amount of 450,000/[…] for a collagen-induced aggregation test.
(§3) 0.01 ml of a solution of a test compound having a predetermined concentration (as shown in the Tables below) was then added to 0.6 ml of the PRP sample obtained above and the mixture was incubated at a temperature of 37° C for 1 minute. Then 0.07 ml of an ADP or collagen solution was added to the mixture. The mixture was then subjected to a transmittance determination and changes in the transmittance of the mixture were recorded using aggregometer at a stirrer rotation rate of 1100 rpm. In this test, Auren Beronal buffer (pH 7.35) was used for the preparation of solutions of ADP, collagen and the test compounds. ADP was adjusted to a concentration of 7.5 × 10^-5 M, and the collagen solution was prepared by triturating 100 mg of collagen with 5 ml of the above buffer and the supernatant obtained was used as a collagen inducer. Adenosine and acetylsalicyclic acid were used as controls for the ADP-induced aggregation test and the collagen-induced aggregation test, respectively. The aggregation inhibitory activity was determined in terms of the percent inhibition (%) with respect to the aggregation ratio of controls. The aggregation ratio can be calculated by the following equation: [formula] Wherein: "a" is the optical density of the PRP,
(§4) "b" is the optical density of the PRP having incorporated therein a test compound and an aggregation inducer, and
(§5) "c" is the optical density of the PPP.

[2] = tested on: collagen-induced aggregation in rabbit platelet; assay: Inhibition effect on collagen-induced aggregation in rabbit platelet; format: cell-based; conditions: rabbit platelet (PRP); for inhibition at 100 µM / inhibition at 10 µM / inhibition at 1 µM / inhibition at 0.01 µM: Oryctolagus cuniculus, Platelet; for inhibition at 100 µM: 10^-4 M test compound solution; for inhibition at 0.01 µM: 10^-8 M test compound solution
Method: as §1, §2, §3, §4, §5

blood platelets = conditions: at low concentrations; cited from earlier work
thrombosis = conditions: administered orally or intravenously to mammals including humans; cited from earlier work
[3] = Toxicity of benzcycloamide derivatives in mouse (LD50); conditions: in vivo
Excerpt: All the benzcycloamide derivatives represented by the aforesaid general formulas (I) are novel compounds having excellent platelet aggregation-inhibiting effects and are useful as preventives for thrombosis. […] Compounds tested: [drawing 17]

SMILES | inhibition at 100 µM ([1]; 10^-4 M test compound solution) | inhibition at 10 µM ([1]; 10^-5 M test compound solution) | inhibition at 1 µM ([1]; 10^-6 M test compound solution) | inhibition at 100 µM [2] | inhibition at 10 µM ([2]; 10^-5 M test compound solution) | inhibition at 1 µM ([2]; 10^-6 M test compound solution) | inhibition at 0.01 µM [2] | other results
CCOC(=O)CCCOc1ccc2c(c1)CCC(=O)N2 [J] | – | – | – | – | – | – | – | Inhibition effect on ADP-induced aggregation ([1]; 10^-4 M test compound solution): 100%; Inhibition effect on ADP-induced aggregation ([1]; 10^-5 M test compound solution): 90%; Inhibition effect on ADP-induced aggregation ([1]; 10^-6 M test compound solution): 25%; Inhibition effect on ADP-induced aggregation ([1]; 10^-7 M test compound solution): -4%; Inhibition effect on collagen-induced aggregation ([2]; 10^-5 M test compound solution): 86%; Inhibition effect on collagen-induced aggregation ([2]; 10^-6 M test compound solution): 18%
CCOC(=O)C(C)Oc1ccc2[nH]c(=O)ccc2c1 (stereo not drawn) [B] | 86% | 54% | -6% | 67% | 12% | -6% | 0% | inhibition at 0.01 µM [1]: 14%
O=C(O)CCCCCCOc1ccc2c(c1)CCC(=O)N2 [L] | 13% | 8% | 7% | 15% | 14% | 2% | – | inhibition at 0.1 µM ([1]; 10^-7 M test compound solution): -10%
CCCCCOC(=O)C(C)Oc1ccc2c(c1)CCC(=O)N2 (stereo not drawn) [F] | 100% | 79% | 20% | 88% | 8% | 0% | – | –
CCCCCOC(=O)CCCOc1ccc2c(c1)CCC(=O)N2 [I] | 82% | 58% | 0% | 48% | 22% | 6% | – | inhibition at 0.1 µM ([1]; 10^-7 M test compound solution): 8%
CCOC(=O)C(C)Oc1ccc2c(c1)CCC(=O)N2C (stereo not drawn) [C] | 36% | – | 0% | 36% | – | 0% | 9% | inhibition at 0.01 µM [1]: 9%
CCOC(=O)C(C)Oc1ccc2c(c1)CCC(=O)N2 (stereo not drawn) [A] | 57% | 25% | 5% | 71% | 20% | 2% | 0% | –
CCOC(=O)CCCOc1cccc2c1CCC(=O)N2 [H] | 65% | 18% | 2% | 90% | 8% | 5% | – | –
CCOC(=O)C(C)Oc1cccc2c1NC(=O)CC2 (stereo not drawn) [Compound M] | 3% | – | 11% | 5% | – | 2% | 7% | inhibition at 0.01 µM [1]: 11%
CCOC(=O)C(C)Oc1ccc2c(c1)NC(=O)CC2 (stereo not drawn) [D] | -18% | – | 14% | 2% | – | 8% | 3% | inhibition at 0.01 µM [1]: 14%
CC(C)(C)NCC(O)COc1cccc2c1CCC(=O)N2 (stereo not drawn) [5-(2'-hydroxy-3-tert-butylamino)-propoxy-3,4-dihydrocarbostyril] | – | – | – | – | – | – | – | inhibition of the aggregation of blood platelets (blood platelets): at low concentrations could specifically inhibit the aggregation of blood platelets; preventing and treating thrombosis (thrombosis): very effective for preventing and treating thrombosis
CC(C)OC(=O)C(C)Oc1ccc2[nH]c(=O)ccc2c1 (stereo not drawn) [G] | 74% | 38% | 7% | 55% | 25% | 3% | – | –
CCOC(=O)CCCOc1ccc2c(c1)CCC(=O)N2 [E] | 100% | 97% | – | 92% | – | – | – | LD50 ([3]; Female mouse): > 1000 mg/kg; LD50 ([3]; Male mouse): > 1000 mg/kg
CCOC(=O)CCCCCCOc1ccc2c(c1)CCC(=O)N2 [K] | 37% | 15% | 10% | 31% | 13% | 6% | – | LD50 ([3]; Female mouse): 500 to 1000 mg/kg; LD50 ([3]; Male mouse): 750 to 1000 mg/kg; inhibition at 0.1 µM ([1]; 10^-7 M test compound solution): 7%
